Experiments:
PfNMT [1] = target: T1, PfNMT (Plasmodium falciparum, UniProt Q9U419); experiment: LELP (cLogP/LE, PfNMT LE)
T1 sequence (Q9U419 1-410): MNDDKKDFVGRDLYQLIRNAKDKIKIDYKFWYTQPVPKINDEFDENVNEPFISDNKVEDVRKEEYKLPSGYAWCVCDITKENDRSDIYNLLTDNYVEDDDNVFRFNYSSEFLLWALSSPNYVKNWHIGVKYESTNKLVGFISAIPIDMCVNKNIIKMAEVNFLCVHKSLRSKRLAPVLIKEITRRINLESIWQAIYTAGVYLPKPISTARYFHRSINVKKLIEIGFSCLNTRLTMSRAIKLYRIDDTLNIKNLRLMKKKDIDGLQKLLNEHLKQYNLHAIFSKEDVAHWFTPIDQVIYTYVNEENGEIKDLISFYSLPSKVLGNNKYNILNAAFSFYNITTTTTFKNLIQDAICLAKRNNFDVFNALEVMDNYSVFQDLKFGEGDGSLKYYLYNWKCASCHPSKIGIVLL

Aqueous solubility = format: physicochemical; settings: data not shown
HsNMT1 = target: T2, HsNMT1 (Homo sapiens, UniProt P30419); experiment: NMT enzyme inhibition, CPM fluorescence assay (HsNMT1); format: biochemical; settings: ratio of Ki
T2 sequence (P30419 1-496): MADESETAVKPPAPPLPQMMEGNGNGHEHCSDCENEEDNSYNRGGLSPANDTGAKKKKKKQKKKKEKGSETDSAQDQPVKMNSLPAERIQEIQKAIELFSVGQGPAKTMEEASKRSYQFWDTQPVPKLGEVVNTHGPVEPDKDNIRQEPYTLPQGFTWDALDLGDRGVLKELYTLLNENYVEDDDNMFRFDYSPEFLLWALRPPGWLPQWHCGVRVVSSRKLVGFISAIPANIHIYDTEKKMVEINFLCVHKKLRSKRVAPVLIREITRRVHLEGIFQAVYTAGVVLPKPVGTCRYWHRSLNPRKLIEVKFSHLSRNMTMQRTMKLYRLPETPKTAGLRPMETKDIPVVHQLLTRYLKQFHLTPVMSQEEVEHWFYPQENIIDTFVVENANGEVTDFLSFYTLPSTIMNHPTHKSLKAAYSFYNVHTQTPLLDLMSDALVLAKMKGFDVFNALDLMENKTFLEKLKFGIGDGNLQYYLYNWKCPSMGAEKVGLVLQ
Description: (§1) All IC50 determinations were carried out using a 7-diethylamino-3-(4′-maleimidylphenyl)-4-methylcoumarin (CPM) fluorescence assay, as described previously for HsNMT1,[45] PvNMT,[46] and PfNMT.[21]
(§2) IC50 values are the mean value of two or more determinations, and standard deviation is within 20% of the IC50 unless otherwise specified. Data were elaborated using Microsoft Office Excel 2010, and IC50 values were determined using GraFit 7.0 (Erithacus Software Ltd., U.K.) by nonlinear regression fitting, which were then quoted as Ki as defined below.
(§3) The Michaelis constant (Km) was 3.64 μM and the substrate concentration was 4.00 μM, resulting in a Ki of 0.008 μM. Km values were calculated as described previously.[45]

HepG2 cells = experiment: in vitro; format: cell-based
PfNMT [2] = target: T1, PfNMT; experiment: NMT enzyme inhibition, CPM fluorescence assay (PfNMT); format: biochemical; settings: for Ki: Ki calculated from IC50 by Cheng-Prusoff, mean of two or more determinations, read-out: PfNMT Ki
Description: as §1, §2, §3

P. falciparum Dd2 = experiment: Plasmodium falciparum [3H]hypoxanthine incorporation assay (Dd2); format: cell-based; settings: drug-resistant vs drug-sensitive line
Description: This assay was performed by Dr. Sergio Wittlin and Dr. Christian Scheurer at the Swiss Tropical and Public Health Institute and is a modified version of the original hypoxanthine assay published by Desjardins et al.:[47]
Serial drug dilutions were prepared with a multichannel pipet, transferring 100 μL in a 2-fold serial dilution. Wells of rows A served as controls without drug. An amount of 100 μL of infected blood (parasitemia of 0.3%, 2.5% hematocrit) was added to all wells with a multipipette. The control wells (A9–A12) received uninfected blood of 2.5% hematocrit. The plates were incubated in an incubation chamber at 37 °C in an atmosphere containing 93% N2, 4% CO2, 3% O2. After 48 h, an amount of 50 μL of [^3H]hypoxanthine (=0.5 μCi) solution was added to each well of the plate. The plates were incubated for another 24 h. The plates were then harvested with a Betaplate cell harvester (Wallac, Zurich, Switzerland). The dried filters were inserted into a plastic foil with 10 mL of scintillation fluid and counted in a Betaplate liquid scintillation counter (Wallac, Zurich, Switzerland). The results were recorded as counts per minute (cpm) per well at each drug concentration.
Data were analyzed using a graphic program (e.g., Excel) and expressed as percentage of the untreated controls. The 50% inhibitory concentration (IC50) value was evaluated by logit regression analysis.

in vitro = format: cell-based; settings: human
PbNMT = PbNMT (Plasmodium berghei, UniProt A0A509ARF4); experiment: PbNMT enzyme affinity; format: biochemical
PbNMT, sequence (A0A509ARF4 entry or part of it): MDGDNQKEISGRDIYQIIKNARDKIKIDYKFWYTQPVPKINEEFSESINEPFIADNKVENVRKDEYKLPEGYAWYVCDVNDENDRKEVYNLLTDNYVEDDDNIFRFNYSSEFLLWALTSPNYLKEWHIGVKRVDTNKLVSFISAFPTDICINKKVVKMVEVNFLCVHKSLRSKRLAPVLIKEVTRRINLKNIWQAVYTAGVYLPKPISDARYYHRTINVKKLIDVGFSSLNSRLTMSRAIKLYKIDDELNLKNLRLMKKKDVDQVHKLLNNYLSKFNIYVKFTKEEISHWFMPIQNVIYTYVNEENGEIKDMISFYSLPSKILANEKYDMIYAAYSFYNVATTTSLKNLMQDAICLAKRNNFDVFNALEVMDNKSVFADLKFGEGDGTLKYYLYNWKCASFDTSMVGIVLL
Description: In addition, 34c was tested against a Plasmodium berghei (Pb) liver stage model to determine whether NMT is likely to be a viable drug target for clearance of liver stage parasites. […] This provides evidence that NMT inhibition is also a promising mechanism for targeting liver stage parasites and may therefore be an effective pathway for the disruption of multiple parasite life stages.

[3] = cLogP determined with ChemAxon
[4] = set-up: method as in PMID 24451586; settings: previously reported; cited from earlier work
rodent malaria model = tested on: rodent malaria model; set-up: method as in PMID 24451586; settings: previously shown; cited from earlier work
PvNMT = target: T3, PvNMT (Plasmodium vivax, UniProt A5K1A2); experiment: NMT enzyme inhibition, CPM fluorescence assay (PvNMT); format: biochemical; settings: relative to 34c
T3 sequence (A5K1A2 1-410): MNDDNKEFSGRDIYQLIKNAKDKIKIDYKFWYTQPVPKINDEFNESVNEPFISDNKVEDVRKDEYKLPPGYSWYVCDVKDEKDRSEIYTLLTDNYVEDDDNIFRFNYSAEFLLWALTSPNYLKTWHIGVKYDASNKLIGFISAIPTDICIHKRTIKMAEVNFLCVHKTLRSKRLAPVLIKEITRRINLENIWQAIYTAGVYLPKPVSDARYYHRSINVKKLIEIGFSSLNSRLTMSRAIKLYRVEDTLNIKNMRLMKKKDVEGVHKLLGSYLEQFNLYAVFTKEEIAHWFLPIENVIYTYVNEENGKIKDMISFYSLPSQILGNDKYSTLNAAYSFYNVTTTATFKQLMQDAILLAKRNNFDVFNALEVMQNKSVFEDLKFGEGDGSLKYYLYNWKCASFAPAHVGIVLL
Description: as §1, §2, §3

LELP (PfNMT [1])	SMILES	also measured
11.8	COc1cc(Cc2noc(-c3sc4ccccc4c3OC3CCNCC3)n2)cc(OC)c1 [9e]	solubility (Aqueous solubility): very low
19.4	c1ccc(C(c2ccccc2)c2nnc(-c3sc4ccccc4c3OC3CCNCC3)o2)cc1 [23e]	
12.2	c1ccc(C2(c3nnc(-c4sc5ccccc5c4OC4CCNCC4)o3)CC2)cc1 [23c]	
6.1	Cc1noc(C)c1Cc1nnc(-c2sc3ccccc3c2OC2CCNCC2)o1 [34b]	selectivity between PfNMT and HsNMT (HsNMT1): 8- to 9 fold
14.1	O=C(OCCOc1ccccc1)c1sc2ccccc2c1OC1CCNCC1 [4e]	
	O=C1C(O)=C([C@H]2CC[C@H](c3ccc(Cl)cc3)CC2)C(=O)c2ccccc21 [compound 37, atovaquone, reference compound]	HepG2 LD50 (HepG2 cells; human, 72 h): >10 000 nM
13.8	FC(F)(c1ccccc1)c1nnc(-c2sc3ccccc3c2OC2CCNCC2)o1 [23d]	
14.3	O=C(OCCc1ccccc1)c1sc2ccccc2c1OC1CCNCC1 [4a]	
9.5	c1ccc(Cc2nnc(-c3sc4ccccc4c3OC3CCNCC3)o2)cc1 [20a]	
12.5	COc1cccc(Cc2noc(-c3sc4ccccc4c3OC3CCNCC3)n2)c1 [9c]	
7.8	Cc1n[nH]c(C)c1CCc1nnc(-c2sc3ccccc3c2OC2CCNCC2)o1 [35a]	
12.8	c1ccc(Cc2nc(-c3sc4ccccc4c3OC3CCNCC3)no2)cc1 [14a]	
9.5	c1ccc(Cc2n[nH]c(-c3sc4ccccc4c3OC3CCNCC3)n2)cc1 [compound 18]	
12.5	CC(c1ccccc1)c1nnc(-c2sc3ccccc3c2OC2CCNCC2)o1 (stereo not drawn) [23a, 2-(1-Phenylethyl)-5-(3-(piperidin-4-yloxy)benzo[b]thiophen-2-yl)-1,3,4-oxadiazole]	
12.4	c1ccc(Cc2noc(-c3sc4ccccc4c3OC3CCNCC3)n2)cc1 [9a, 3-Benzyl-5-(3-(piperidin-4-yloxy)benzo[b]thiophen-2-yl)-1,2,4-oxadiazole]	
14.1	CC(C)(c1ccccc1)c1nnc(-c2sc3ccccc3c2OC2CCNCC2)o1 [23b]	
	O=C(NCCCc1ccccc1)c1sc2ccccc2c1OC1CCNCC1 [6b]	Ki (PfNMT [2]): > 10 µM

LELP (PfNMT [1])	SMILES	also measured
7.9	Cc1noc(C)c1CCc1nnc(-c2sc3ccccc3c2OC2CCNCC2)o1 [35b]	
18.6	O=C(OCCCc1ccccc1)c1sc2ccccc2c1OC1CCNCC1 [4d]	
	O=C(NCCc1ccccc1)c1sc2ccccc2c1OC1CCNCC1 [6a]	Ki (PfNMT [2]): > 10 µM
7.9	OC(c1ccccc1)c1nnc(-c2sc3ccccc3c2OC2CCNCC2)o1 (stereo not drawn) [23g]	
9.2	COc1cccc(Cc2nnc(-c3sc4ccccc4c3OC3CCNCC3)o2)c1 [20b]	
11.8	COc1cc(Cc2nc(-c3sc4ccccc4c3OC3CCNCC3)no2)cc(OC)c1 [14c]	
8.2	Cc1nn(C)c(C)c1CCc1nnc(-c2sc3ccccc3c2OC2CCNCC2)o1 [35c]	
5.5	Cc1nn(C)c(C)c1Cc1nnc(-c2sc3ccccc3c2OC2CCNCC2)o1 [34c, 2-(3-(Piperidin-4-yloxy)benzo[b]thiophen-2-yl)-5-((1,3,5-trimethyl-1H-pyrazol-4-yl)methyl)-1,3,4-oxadiazole]	improvement in enzyme affinity (PfNMT) relative to 1 (PfNMT [2]): 100 fold; selectivity between PfNMT and HsNMT (HsNMT1): 8- to 9 fold; loss of potency between NF54 and Dd2 (P. falciparum Dd2): less than 4 fold; EC50 at 72 h (in vitro): 12.3 µM; HepG2 LD50 (HepG2 cells; human, 72 h): 12 300 nM; HepG2 LD50 (approximate) (HepG2 cells; human, 72 h): ~10 µM; selectivity between parasitic and HepG2 cell lines (HepG2 cells; up to): ~40 fold; Ki (PbNMT): 0.014 µM; reduction in lipophilicity relative to 1 [3]: 100 fold; aqueous solubility [4]: > 8 mM; parasitemia in vivo (rodent malaria model): reduce parasitemia in vivo
12.4	COc1cc(CCOC(=O)c2sc3ccccc3c2OC2CCNCC2)cc(OC)c1 [4c]	
	O=C(NCCOc1ccccc1)c1sc2ccccc2c1OC1CCNCC1 [6c]	Ki (PfNMT [2]): > 10 µM
12.4	COc1cccc(Cc2nc(-c3sc4ccccc4c3OC3CCNCC3)no2)c1 [14b, 5-(3-Methoxybenzyl)-3-(3-(piperidin-4-yloxy)benzo[b]thiophen-2-yl)-1,2,4-oxadiazole]	
10.5	COC(c1ccccc1)c1nnc(-c2sc3ccccc3c2OC2CCNCC2)o1 (stereo not drawn) [23f]	
15.2	c1ccc(CCc2noc(-c3sc4ccccc4c3OC3CCNCC3)n2)cc1 [9b, 3-Phenethyl-5-(3-(piperidin-4-yloxy)benzo[b]thiophen-2-yl)-1,2,4-oxadiazole]	
13.2	COc1cccc(CCOC(=O)c2sc3ccccc3c2OC2CCNCC2)c1 [4b, 3-Methoxyphenethyl 3-(Piperidin-4-yloxy)benzo[b]thiophene-2-carboxylate]	improvement in enzyme affinity (PfNMT) relative to 1 (PfNMT [2]): 6 fold
15.3	Clc1cccc(Cc2noc(-c3sc4ccccc4c3OC3CCNCC3)n2)c1 [9d]	
5.6	Cc1n[nH]c(C)c1Cc1nnc(-c2sc3ccccc3c2OC2CCNCC2)o1 [34a]	lower binding affinity to PvNMT than 34c (PvNMT): ~40 fold
